Data set [1] can be described thus: physchem. Conditions: aqueous phosphate buffer, pH 7.4.
The nature of data set [2]: Percentage unbound in human plasma at 5 uM after 6 hrs by equilibrium dialysis method. The class given is ADME, cell-free. Conditions: for Fu: 6 h, 5 µM.
For data set [3] the following is noted: octanol/water, pH 7.4, 1 h.
A short description of data set [4]: Effective permeability of compound assessed as membrane retention at pH 7.4 at 200 uM after 5 hrs by PAMPA relative to control. The class given is ADME. Conditions: pH 7.4, 5 h.
The conditions of data set [5]: buffer, pH 7.4, 24 h, 200 µM.
The nature of data set [6]: Effective permeability of compound at pH 7.4 at 200 uM after 5 hrs by PAMPA. The data set is classed as ADME. To be noted: for Papp at 5 h, 200 µM: PAMPA, pH 7.4, read-out: Peff; for Peff: pampa, pH 7.4, 5 h, 200 µM, BLD = below limit of detection.
Data set [7] in a line: Dissociation constant, pKa of the compound at 100 uM by capillary electrophoresis. The data set is classed as physicochemical. Conditions: for pKa: 100 µM.
The nature of data set [8]: physchem. Conditions: 1-octanol/aqueous buffer, pH 7.4.
A short description of data set [9]: Apparent permeability of compound at pH 7.4 at 200 uM by PAMPA. The class given is physicochemical. Conditions: pH 7.4, 200 µM, BLD = below limit of detection.

Converted amounts (≈) assume the structure as drawn. Where only a bound is given, the exact number is not on record here.

The compound `CS(=O)(=O)NC(=O)NCc1ccccc1` returned a solubility (kinetic) at 24 h, 200 µM in the data set “physchem [1]” of 198 µM (≈ 45.1 µg/mL). For the same compound, the Fu in data set [2] was 31%. This compound also returned a logD in [3] of -1.23. For the same compound, in data set [4], the R% came to 3%.
For `CC(=O)N(O)CCc1ccccc1` the same measures were at least 200 µM, 37%, 1.52 and 1.1%.
Compound `CS(=O)(=O)NC(=O)CCc1ccccc1` came in with a solubility (kinetic) at 24 h, 200 µM in the data set “physchem [1]” of 200 µM (≈ 45.4 µg/mL). The compound also came in with a Fu in data set [2] of 12.8%. In [4], the R% is 1.4%.
In [3], `Oc1ccccc1SCc1ccccc1` registered a logD of over 3.78. Further, the Kinetic_solubility entry in data set [5] is “ND(Unstable)”.
Compound `CC(=O)NOCCc1ccccc1` returned a solubility (kinetic) at 24 h, 200 µM in the data set “physchem [1]” of 200 µM (≈ 35.8 µg/mL). Besides, the Fu in data set [2] is reported as 64%. For the same compound, the logD in [3] turned out to be 1.18. Besides, the R% in data set [4] is recorded as -2.9%. Besides, in data set [6], the Papp at 5 h, 200 µM was found to be 4.6 ×10⁻⁶ cm/s.
Turning to `CS(=O)(=O)NCCCc1ccccc1`, in “physchem [1]”, the solubility (kinetic) at 24 h, 200 µM is at least 200 µM. The compound also returned a Fu in data set [2] of 37.27%. Also, in data set [3], the pH-dependent lipophilicity (logD) is listed as 1.42. Moreover, the R% in [4] came out at 8.1%. Besides, the pKa in [7] is given as over 12.
`CC1=C(O)CC(Cc2ccccc2)C1=O` (stereo unspecified) registered a solubility (kinetic) at 24 h, 200 µM in “physchem [1]” of over 200 µM. Moreover, the fraction unbound at 6 h, 5 µM in data set [2] was found to be 0.111. Further, the R% in data set [4] is reported as -5.1%. Further, the pKa at 100 µM in data set [7] stood at 4.47. Further, the Papp at 5 h, 200 µM in data set [6] stood at 0.26 ×10⁻⁶ cm/s. For the same compound, the logD at 1 h in the data set “physchem [8]” was -0.33.
For `S=c1[nH]c(CCc2ccccc2)no1`, in “physchem [1]”, the kinetic solubility at 24 h, 200 µM was at least 200 µM. In addition, in data set [2], the Fu is recorded as 0.65%. In data set [3], this compound registered a logD of -0.25. In [4], the R% is -3.4%.
`c1ccc(CCc2nnn[nH]2)cc1` displayed a solubility (kinetic) at 24 h, 200 µM in “physchem [1]” of at least 200 µM. Moreover, the Fu in [2] worked out at 1.12%. Besides, the logD in data set [3] is reported as -0.25. In addition, the R% in data set [4] turned out to be 4.7%.
For `O=c1[nH]c(CCc2ccccc2)ns1`, the kinetic solubility at 24 h, 200 µM in “physchem [1]” came to 200 µM (≈ 41.4 µg/mL). In data set [2], this compound gave a Fu of 1.17%. Also, in [3], the logD amounted to 1.66. In addition, the R% in [4] is -0.7%.
With `O=c1[nH]c(CCc2ccccc2)no1`, the kinetic solubility at 24 h, 200 µM in the data set “physchem [1]” was at least 200 µM. The compound further gave a Fu in [2] of 1.1%. This compound registered a logD in data set [3] of 0.32. Further, the R% in [4] is listed as -4%.
For `Oc1c(F)ccc(Cc2ccccc2)c1F` the same measures were 149 µM (≈ 32.7 µg/mL), 0.52%, 3.56 and -32%.
On to `O=P(O)(O)CCc1ccccc1`, for which the solubility (kinetic) at 24 h, 200 µM in the data set “physchem [1]” is 152 µM (≈ 28.4 µg/mL). The compound further came in with a Fu in data set [2] of 31%. Moreover, the R% in data set [4] is given as -2.7%. In addition, in data set [6], the Papp at 5 h, 200 µM turned out to be 0.094 ×10⁻⁶ cm/s.
`O=S(=O)([O-])CCc1ccccc1.[Na+]` displayed a kinetic solubility at 24 h, 200 µM in the data set “physchem [1]” of at least 200 µM. In data set [2], this compound had a Fu of 0.31%. In [3], this compound returned a logD of -1.45. Besides, the R% in data set [4] is listed as -6.1%. This compound came in with a pKa in data set [7] of under 2.
On to `O=[PH](O)CCc1ccccc1`, for which the kinetic solubility at 24 h, 200 µM in the data set “physchem [1]” is 128 µM (≈ 21.7 µg/mL). The same compound came in with a Fu in data set [2] of 8.86%. In data set [4], the R% is recorded as -2.1%.
Take `O=C1NC(=O)C(Cc2ccccc2)O1` (stereo unspecified): the solubility (kinetic) at 24 h, 200 µM in the data set “physchem [1]” was at least 200 µM. In data set [2], this compound came in with a Fu of 14%. Besides, in data set [3], the log distribution coefficient (logD) is reported as -0.16. Also, in [4], the R% was -0.6%.
Consider `CC(=O)NC(=O)NCc1ccccc1`, for which the solubility (kinetic) at 24 h, 200 µM in the data set “physchem [1]” was at least 200 µM. The compound also displayed a Fu in data set [2] of 77%. In data set [3], the logD is given as 1.42. Further, the R% in data set [4] is reported as -3.3%. For the same compound, the pKa in data set [7] was over 12.
`O=C(O)CCc1ccccc1` had a solubility (kinetic) at 24 h, 200 µM in the data set “physchem [1]” of 111 µM (≈ 16.6 µg/mL). In addition, in data set [2], the Fu came to 9.5%. Also, the R% in [4] is given as -7%.
In turn, `[O-][S+](Cc1ccccc1)c1ccccc1O` (stereo unspecified) registered a solubility (kinetic) at 24 h, 200 µM in “physchem [1]” of at least 200 µM. Also, the Fu in data set [2] was found to be 12%. Also, in data set [3], the logD amounted to 2.16. In data set [4], the R% is given as 1.1%.
`O=C(CCc1ccccc1)NO` displayed a solubility (kinetic) at 24 h, 200 µM in “physchem [1]” of at least 200 µM. The compound also displayed a Fu in data set [2] of 29%. In data set [3], this compound came in with a logD of 0.71. Also, in [4], the R% turned out to be 0.03%.
For `NS(=O)(=O)CCc1ccccc1`, in “physchem [1]”, the kinetic solubility at 24 h, 200 µM was at least 200 µM. In addition, the Fu in [2] came to 60.72%. This compound also registered a logD in data set [3] of 0.96. Besides, the R% in data set [4] turned out to be 4.2%.
Consider `O=C1CCC(O)=C1Cc1ccccc1`, for which, in “physchem [1]”, the solubility (kinetic) at 24 h, 200 µM came to 199 µM (≈ 37.5 µg/mL). The Fu in data set [2] is recorded as 14.3%. The compound further had a logD in [3] of -0.6. Besides, the R% in data set [4] was -8.8%.
The corresponding values for `Oc1c(F)cc(Cc2ccccc2)cc1F` are 109 µM (≈ 24 µg/mL), 0.26%, 3.34 and 49%.
Turning to `O=S([O-])CCc1ccccc1.[Na+]`, the solubility (kinetic) at 24 h, 200 µM in the data set “physchem [1]” is at least 200 µM. Moreover, the Fu in data set [2] was 5%. This compound also returned a logD in data set [3] of -1.3. Besides, the R% in data set [4] was -6.8%. Further, in data set [6], the Peff entry is on record as “BLD”. Besides, in [9], the logPapp entry is “BLD”.
In “physchem [1]”, `CONC(=O)CCc1ccccc1` returned a kinetic solubility at 24 h, 200 µM of at least 200 µM. The Fu in data set [2] came out at 68%. In data set [3], the logD amounted to 1.16. Moreover, in data set [4], the R% stood at 5.3%.
In turn, `O=C1C=C(O)CC1Cc1ccccc1` (stereo unspecified) gave a kinetic solubility at 24 h, 200 µM in the data set “physchem [1]” of 195 µM (≈ 36.7 µg/mL). Moreover, the Fu in [2] is reported as 7.96%. The same compound registered a logD in data set [3] of -0.7. In addition, in data set [4], the R% is listed as -3%.
For `O=C1NC(=O)C(Cc2ccccc2)S1` (stereo unspecified), the kinetic solubility at 24 h, 200 µM in the data set “physchem [1]” came out at 200 µM (≈ 41.5 µg/mL). For the same compound, in [2], the Fu is reported as 3.4%. In data set [3], this compound displayed a logD of 1.07. In addition, the R% in data set [4] was determined as 5.5%.
`O=c1c(O)c(NCc2ccccc2)c1=O` yielded a solubility (kinetic) at 24 h, 200 µM in “physchem [1]” of at least 200 µM. In [2], this compound displayed a Fu of 6.45%. Besides, the R% in [4] is recorded as -6.6%. Further, the pKa in data set [7] is under 2.
`Oc1cc(Cc2ccccc2)on1` came in with a kinetic solubility at 24 h, 200 µM in the data set “physchem [1]” of at least 200 µM. The compound further gave a Fu in [2] of 0.1%. Moreover, in [3], the logD came out at 0.46. Further, the R% in [4] was -11%.
The compound `O=C1CC(=O)C(Cc2ccccc2)N1` (stereo unspecified) displayed a kinetic solubility at 24 h, 200 µM in the data set “physchem [1]” of at least 200 µM. The compound also yielded a logD in data set [3] of -0.35. For the same compound, in data set [4], the R% is recorded as 1.3%. In addition, the Papp at 5 h, 200 µM in data set [6] came out at 2.5 ×10⁻⁶ cm/s.
In “physchem [1]”, `O=C1CC(c2ccccc2)C=C1O` (stereo unspecified) gave a solubility (kinetic) at 24 h, 200 µM of 192 µM (≈ 33.5 µg/mL). In data set [3], this compound came in with a logD of 1.71. In addition, the R% in data set [4] is listed as -8.6%.
In “physchem [1]”, `CN(C)S(=O)(=O)NC(=O)CCc1ccccc1` yielded a solubility (kinetic) at 24 h, 200 µM of 199 µM (≈ 51 µg/mL). The Fu in data set [2] was determined as 8.1%. Also, the logD in [3] came to 0.17. For the same compound, the R% in [4] was determined as 2.2%. Also, the pKa in [7] is 5.86.
The compound `O=c1c(O)c(Cc2ccccc2)c1=O` showed a solubility (kinetic) at 24 h, 200 µM in “physchem [1]” of 166 µM (≈ 31.2 µg/mL). This compound returned a Fu in data set [2] of 8.19%. Further, in data set [3], the logD is listed as -0.84. For the same compound, the R% in [4] is on record as -13%. The same compound displayed a pKa in data set [7] of under 2. In addition, the Peff entry in [6] was “BLD”. Besides, in [9], the logPapp entry was “BLD”.
`O=C1CCC(Cc2ccccc2)=C1O` came in with a kinetic solubility at 24 h, 200 µM in the data set “physchem [1]” of 195 µM (≈ 36.7 µg/mL). The Fu in data set [2] is 16%. The logD in data set [3] was found to be 1.85. Further, in data set [4], the R% was determined as 1.5%.
For the compound `O=S(=O)(Cc1ccccc1)c1ccccc1O`, the kinetic solubility at 24 h, 200 µM in the data set “physchem [1]” is 197 µM (≈ 48.9 µg/mL). Also, the Fu in [2] was determined as 1.59%. In data set [3], this compound showed a logD of 1.76. The R% in [4] is given as 7.2%.

The record behind these values is ChEMBL document CHEMBL3797172, “Structure Property Relationships of Carboxylic Acid Isosteres” (J Med Chem, 2016).
